Source: US20260378560A1, “APPROACHES TO DESIGNING AND PERFORMING COMPRESSED BIOLOGICAL EXPERIMENTS AND SYSTEMS FOR IMPLEMENTING THE SAME” (EXVIVO LABS INC., priority 2023, published 2026)

Columns and labels:
[1] = system: CCRF-HSB2; assay: ATP-based luminescence cell viability (CellTiter Glo), drug response score, CCRF-HSB2
Text: (§1) As part of a screen, a drug could be screened at different concentrations ranging from a lowest concentration to a highest concentration. In such a scenario, multiple data structures may be obtained by the screening platform 210. […] With these multiple data structures, the analysis module 218 can generate a dose-response curve that describes the magnitude of the response of the biological target, as a function of exposure to different concentrations of the drug. Further, the analysis module 218 can calculate a metric that is indicative of the response of the biological target. In the event that the biological target is one of multiple biological targets that are introduced to the pools of drugs, the metric can be used by the screening platform 210 to better understand the relative magnitude of responses. One example of a metric is drug-response score (“DRS”). DRS can be calculated as a continuous function of multiple parameters of the non-linear dose-response curve, including the slope at the half-maximal effective concentration (also called “EC50”) and the top and bottom asymptotes of the dose-response curve. DRS can be calculated as follows: […]
(§2) where y is a continuous function of the variable dose x, a is the maximal response (i.e., the top asymptote of the curve), b is the slope of the curve, c is the IC50 (i.e., half-maximal inhibitory concentration), and d is the minimal response (i.e., the bottom asymptote of the curve). Other examples of metrics include those output by sigmoidal and Hill slide functions that, like DRS, incorporate multiple aspects of the dose-response curve into a continuous function.
(§3) Total cell viability was measured for each cancer cell line using an Adenosine TriPhosphate (“ATP”) assay, and more specifically an ATP-based luminescence assay (i.e., CellTiter Glo). Each cancer drug was screened at multiple concentrations ranging from one nanomolar (nM) to ten micromolar (UM) in order to generate a dose-response curve and calculate a drug response score (“DRS”) for each cancer cell line. The DRS was calculated as a continuous function of multiple parameters of the non-linear dose-response curve, including the slope at the half-maximal effective concentration (also called “EC50”) and the top and bottom asymptotes of the dose-response curve. […] After total cell viability was measured and DRS was calculated, the DRS of each cancer cell line in the pool was deconvolved for each cancer drug.
(§4) DRS for these anchor cell lines are bolded and italicized. Anchors can be identified based on frequency of the cell lines in pools with high DRS versus low DRS. At a high level, an anchor is predicted to be the cell line with the lowest individual DRS. In order to deconvolute individual cell line DRS values from pool DRS values, the anchor can start with an assumed DRS value of zero. Each pool can then be expressed as a polynomial of variables (cell lines in the pool) and constants (DRS value of the pool). The DRS value of each cell line can then be solved for using the anchor value and overlapping polynomial expressions. When multiple values are calculated for the final target solved from the polynomials, then the anchor has a non-zero value that can be determined based on the difference in the calculated value of the final target.
(§5) Each pool represented a co-culture of three cell lines (“Target Compression”).

[2] = system: SUP-B15; assay: ATP-based luminescence cell viability (CellTiter Glo), drug response score, SUP-B15; design: scale not given here
Text: as §1, §2, §3, §4, §5

[3] = system: JURKAT; assay: ATP-based luminescence cell viability (CellTiter Glo), drug response score, JURKAT; details: screened individually (Compress: None)
[4] = system: SUP-B15; assay: ATP-based luminescence cell viability (CellTiter Glo), drug response score, SUP-B15; design: scale not given here; details: SUP-B15, screened individually (Compress: None)
[5] = system: REH; assay: Cell viability (CellTiter Glo), compressed perturbation pools with informed pool design, SUM-based deconvolution, REH; design: scale not given here
Protocol: Total cell viability was measured for each sample using an ATP-based luminescence assay (i.e., CellTiter Glo). Each cancer drug was then screened at multiple concentrations ranging from one nM to ten μM in order to generate a dose-response curve and calculate a DRS for each cancer cell line.
Each cancer drug was cultured with target cells individually. At the end of the screen, samples were either analyzed individually or compressed into pools for analysis. The library was compressed alphabetically into ten cohorts, each of which contained seven cancer drugs present in three out of the seven pools, as shown in Table VII. Said another way, the screening platform 210 generated a “7 pick 3” compressed library by assigning the cancer drugs among different pools. […] The library was also compressed into ten cohorts with pools designed based on information known about each cancer drug, as shown in Table VIII. After cell viability measurement and DRS calculation, the DRS of each cancer drug in the samples generated based on the pools were deconvoluted and compared to the DRS for each cancer drug measured individually.
In parallel to the exemplary sample compression screen covered in Table VII, perturbations were compressed into pools and then screened. The pools were designed using drug class as a feature with two compression rules (or simply “rules”). The first rule required that drugs from the same class be separated into different cohorts (i.e., mutually exclusive groups of pools). The second rule separated PI3K pathway inhibitors from MAPK pathway inhibitors, as inhibiting these pathways in parallel is known to be synergistic but has not been clinically effective due to dose-limiting toxicities. A benefit of compressing perturbations is the ability to measure additive, antagonistic, and synergistic effects between drugs in the same pool. However, these effects can negatively impact deconvolution of individual drug effects. Therefore, combinations of drugs for which evidence of clinical toxicity exists can be assigned to different pools in accordance with an informed pooling operation. As new preclinical or clinical evidence of toxic combinations becomes available, the rules implemented by the screening platform 210—and more specifically, its algorithm for compressing members of a library—can be updated accordingly.
In SUM-based deconvolution, an assumption of additivity is used to quantify the individual effects of each perturbation on each target. Additivity implies that each perturbation effect on each target is positively contributing to the overall effect measured for that pool. This is an accurate assumption for certain experiments, such as when targets or samples are compressed. When targets are pooled—or when samples containing different targets are pooled—the effect of each perturbation on each individual target is diluted. In other words, each perturbation has an isolated effect on a target in culture, and the sum total of the isolated effects are measured when pooled. Therefore, SUM-based deconvolution breaks down the sum total measured for a pool and assigns estimated fractional effects to each compressed perturbation or target in the pool. The screening platform 210 used SUM-based deconvolution for all target and sample compression experiments described above.
As mentioned above, SUM-based deconvolution uses the overlapping pool design to identify relative relationships and ranges for the individual effects of each perturbation. When the overlapping pool design is not sufficient to solve for the polynomials representing perturbation effects, an anchor perturbation can be identified by the screening platform 210 based on rank order and assigned an effect size of zero. The anchor perturbation may be the lowest ranked perturbation in the rank order. This then enables the screening platform 210 to solve for the polynomials for the remaining perturbations.

[6] = CCRF-HSB2, Sample compression, 5 Pick 3 pools
[7] = CCRF-HSB2, Target compression, 5 Pick 3 pools
[8] = CCRF-HSB2, Target compression, 6 Pick 3 pools
[9] = CCRF-HSB2, Target compression, 7 Pick 3 pools
[10] = SUP-B15, Sample compression, 5 Pick 3 pools
[11] = SUP-B15, Target compression, 5 Pick 3 pools
[12] = SUP-B15, Target compression, 6 Pick 3 pools
[13] = SUP-B15, Target compression, 7 Pick 3 pools

Structure (SMILES)	DRS from deconvolution [1, 6]	DRS from deconvolution [1, 7]	DRS from deconvolution [1, 8]	DRS from deconvolution [1, 9]	DRS from deconvolution [2, 10]	DRS from deconvolution [2, 11]	DRS from deconvolution [2, 12]	DRS from deconvolution [2, 13]	drug response score (DRS) [3]	drug response score (DRS) [4]	DRS, REH, SUM [5]
COc1c(OCCCN2CCOCC2)ccc2c1N=C(NC(=O)c1cnc(N)nc1)N1CCN=C21 [Copanlisib]	7.35	7.82	7.97	7.10	1.80	1.98	3.00	1.91	1.34	2.84	–
COc1cc2ncnc(Nc3ccc(F)c(Cl)c3)c2cc1OCCCN1CCOCC1 [Gefitinib]	–	–	–	–	–	–	–	–	–	–	1.12
N#Cc1ccnc(N2C(=O)CC[C@H]2C(=O)N(c2cncc(F)c2)[C@H](C(=O)NC2CC(F)(F)C2)c2ccccc2Cl)c1 [Ivosidenib]	1.52	1.74	1.53	1.61	0.09	0.00	0.00	0.00	0.70	0.00	–
C=CC(=O)Nc1cc(Nc2nccc(-c3cn(C)c4ccccc34)n2)c(OC)cc1N(C)CCN(C)C [Osimertinib]	–	–	–	–	–	–	–	–	–	–	0.00
Cc1[nH]c2ccccc2c1CCNCc1ccc(/C=C/C(=O)NO)cc1 [Panobinostat]	18.63	19.75	17.30	17.26	25.45	21.44	22.36	21.78	13.20	22.40	–
CC1(C)CCC(CN2CCN(c3ccc(C(=O)NS(=O)(=O)c4ccc(NCC5CCOCC5)c([N+](=O)[O-])c4)c(Oc4cnc5[nH]ccc5c4)c3)CC2)=C(c2ccc(Cl)cc2)C1 [Venetoclax]	0.00	0.00	0.00	0.00	37.02	37.99	37.35	35.04	0.00	37.40	5.50
